From patent US10307357B2, “Prebiotic oral care compositions containing an alkyl glycoside” (COLGATE-PALMOLIVE COMPANY, priority 2013, dated 2019)

What was measured:
Experiment in all cases: Phenotype microarray metabolic activity
Assay type in all cases: cell-based
Conditions in all cases: control = 1
Actinomyces naeslundii = test system: Actinomyces naeslundii
Procedure: (§1) The extent of metabolic activity of the tested bacteria in the presence of the above-mentioned glycosides after 24 hours and 48 hours was investigated through a high throughput phenotype microarray system (PM) for microbial cells (Biolog Inc.). Each PM can contain up to 95 different biochemical compounds (e.g. glycosides) that may act as substrates for bacteria as well as one negative control, not containing the substrates. Microarray plates were used in which the different wells of each plate were pre-loaded (by the manufacturer, Biolog Inc.) with different glycosides to be tested. Each bacterial species was tested using a separate microarray plate. Thus, a single bacterial species was tested with a variety of glycosides on each particular plate. The microarrays are based on redox technology, using cell respiration as a universal reporter. Active cell respiration results in the reduction of a tetrazolium dye and in the formation of a strong color—for example, when using the tetrazolium dye “Biolog Redox Dye Mix D”, the color changes from transparent/colorless to purple when the dye is reduced. The observation of this color change indicates which of the substrates improve the metabolic activity and health of the cells. Each bacterial species was collected from blood agar plates (incubated for 48 hours anaerobically at 37° C.) and transferred to an IF-0 Base inoculation fluid (Biolog Inc.), which is a nutritionally poor medium. The resulting cell suspension was adjusted to a transmittance of 42% (relative to the transmittance of the base inoculation fluid with no bacterial species present) at 492 nm using a BioRad SmartSpec 3000 Photometer (the adjustment being effected by adding either further inoculation fluid or further bacteria until the transmittance of 42% was achieved). A 1:5 dilution of this suspension was prepared by mixing 3 mL of the 42% transmittance cell suspension with […] of an inoculation fluid (which inoculation fluid was formed by mixing 11.6 mL sterile water, 62.5 mL IF-0 base inoculation fluid and 0.9 mL of the tetrazolium dye “Biolog Redox Dye mix D”), resulting in a final cell density which was equal to 85% transmittance using a BioRad SmartSpec 3000 Photometer. For each of the glycosides tested, the microarray plate (obtained from the supplier (Biolog Inc.) with glycosides already present in the relevant wells in powder form) was directly inoculated with 100 μL/well of this 85% transmittance cell suspension. All plates were incubated in an anaerobic atmosphere at 37° C. Color changes were measured spectrophotometrically at 492 nm (Thermo Scientific Multiskan Ascent) at 24 hrs and 48 hrs using the same plate at both time points. […] After 24 hrs and 48 hrs under continuous shaking in a Multiscan microplate reader, the optical density (OD) of the synthetic medium at 24 hours and 48 hours was measured (using the microplate reader) at a wavelength of 492 nm for each combination of bacterium/glycoside, and for each of their respective controls (i.e. which contained the particular bacterium but no glycosides). […] The experiment was carried out three times for each combination of bacterium with glycosides, with each repeat being carried out on a different day (thus providing three biological replicas). The controls were also carried out three times, as above. The values shown are the average (mean) of the three single values obtained (as detailed above) for each combination of bacterium with glycosides, at 24 hrs and at 48 hrs.

Actinomyces viscosus = test system: Actinomyces viscosus
Procedure: as §1

[1] = test system: Aggregatibacter actinomycetemcomitans
Procedure: as §1

Fusobacterium nucleatum = test system: Fusobacterium nucleatum
Procedure: as §1

Porphyromonas gingivalis = test system: Porphyromonas gingivalis
Procedure: as §1

Prevotella intermedia = test system: Prevotella intermedia
Procedure: as §1

Streptococcus mitis = test system: Streptococcus mitis
Procedure: as §1

Streptococcus salivarius = test system: Streptococcus salivarius
Procedure: as §1

Streptococcus sanguinis = test system: Streptococcus sanguinis
Procedure: as §1

Streptococcus sobrinus = test system: Streptococcus sobrinus
Procedure: as §1

Tannerella forsythia = test system: Tannerella forsythia
Procedure: as §1

Veillonella parvula = test system: Veillonella parvula
Procedure: as §1

With `CO[C@H]1O[C@H](CO)[C@H](O)[C@H](O)[C@H]1O` [α-methyl-D-galactoside] the “OD 492 nm divided by control (metabolic activity)” value (“OD 492 nm divided by control” for short) (Actinomyces naeslundii; 24 hrs) was 2.1644, the “OD 492 nm divided by control” value (Actinomyces naeslundii; 48 hrs) was 2.8156 and the “OD 492 nm divided by control” value (Actinomyces viscosus; 24 hrs) was 2.4728. For the same compound, the “OD 492 nm divided by control” value (Actinomyces viscosus; 48 hrs) was 3.3823, the “OD 492 nm divided by control” value ([1]; 24 hrs) was 0.8204 and the “OD 492 nm divided by control” value ([1]; 48 hrs) was 0.7697. For the same compound, the “OD 492 nm divided by control” value (Fusobacterium nucleatum; 24 hrs) was 0.8949, the “OD 492 nm divided by control” value (Fusobacterium nucleatum; 48 hrs) was 0.8204 and the “OD 492 nm divided by control” value (Porphyromonas gingivalis; 24 hrs) was 0.8079. For the same compound, the “OD 492 nm divided by control” value (Porphyromonas gingivalis; 48 hrs) was 0.8180, the “OD 492 nm divided by control” value (Prevotella intermedia; 24 hrs) was 0.9609 and the “OD 492 nm divided by control” value (Prevotella intermedia; 48 hrs) was 0.9269. The “OD 492 nm divided by control” value (Streptococcus mitis; 24 hrs) was 1.3498, the “OD 492 nm divided by control” value (Streptococcus mitis; 48 hrs) was 1.3555 and the “OD 492 nm divided by control” value (Streptococcus salivarius; 24 hrs) was 0.9677. For the same compound, the “OD 492 nm divided by control” value (Streptococcus salivarius; 48 hrs) was 0.8829, the “OD 492 nm divided by control” value (Streptococcus sanguinis; 24 hrs) was 1.0198 and the “OD 492 nm divided by control” value (Streptococcus sanguinis; 48 hrs) was 1.1007. The “OD 492 nm divided by control” value (Streptococcus sobrinus; 24 hrs) was 1.0761, the “OD 492 nm divided by control” value (Streptococcus sobrinus; 48 hrs) was 0.9730 and the “OD 492 nm divided by control” value (Tannerella forsythia; 24 hrs) was 1.0380. For the same compound, the “OD 492 nm divided by control” value (Tannerella forsythia; 48 hrs) was 1.1302, the “OD 492 nm divided by control” value (Veillonella parvula; 24 hrs) was 0.9782 and the “OD 492 nm divided by control” value (Veillonella parvula; 48 hrs) was 1.2054.

`CO[C@@H]1O[C@H](CO)[C@H](O)[C@H](O)[C@H]1O` [β-methyl-D-galactoside] was tested, and the “OD 492 nm divided by control” value (Actinomyces naeslundii; 24 hrs) was 1.5393, the “OD 492 nm divided by control” value (Actinomyces naeslundii; 48 hrs) was 1.9886 and the “OD 492 nm divided by control” value (Actinomyces viscosus; 24 hrs) was 2.8391. For the same compound, the “OD 492 nm divided by control” value (Actinomyces viscosus; 48 hrs) was 3.9827, the “OD 492 nm divided by control” value ([1]; 24 hrs) was 0.8310 and the “OD 492 nm divided by control” value ([1]; 48 hrs) was 0.7733. For the same compound, the “OD 492 nm divided by control” value (Fusobacterium nucleatum; 24 hrs) was 0.9051, the “OD 492 nm divided by control” value (Fusobacterium nucleatum; 48 hrs) was 0.7899 and the “OD 492 nm divided by control” value (Porphyromonas gingivalis; 24 hrs) was 1.1297. The “OD 492 nm divided by control” value (Porphyromonas gingivalis; 48 hrs) was 1.8212, the “OD 492 nm divided by control” value (Prevotella intermedia; 24 hrs) was 1.0543 and the “OD 492 nm divided by control” value (Prevotella intermedia; 48 hrs) was 1.0046. For the same compound, the “OD 492 nm divided by control” value (Streptococcus mitis; 24 hrs) was 1.0977, the “OD 492 nm divided by control” value (Streptococcus mitis; 48 hrs) was 0.9864 and the “OD 492 nm divided by control” value (Streptococcus salivarius; 24 hrs) was 6.9837. For the same compound, the “OD 492 nm divided by control” value (Streptococcus salivarius; 48 hrs) was 6.4661, the “OD 492 nm divided by control” value (Streptococcus sanguinis; 24 hrs) was 1.0434 and the “OD 492 nm divided by control” value (Streptococcus sanguinis; 48 hrs) was 1.0609. For the same compound, the “OD 492 nm divided by control” value (Streptococcus sobrinus; 24 hrs) was 1.3078, the “OD 492 nm divided by control” value (Streptococcus sobrinus; 48 hrs) was 1.3002 and the “OD 492 nm divided by control” value (Tannerella forsythia; 24 hrs) was 1.2183. The “OD 492 nm divided by control” value (Tannerella forsythia; 48 hrs) was 1.8850, the “OD 492 nm divided by control” value (Veillonella parvula; 24 hrs) was 0.8103 and the “OD 492 nm divided by control” value (Veillonella parvula; 48 hrs) was 0.6840.
